Test results taken from ChEMBL document CHEMBL1275354, “Anticonvulsant activity of 2,4(1H)-diarylimidazoles in mice and rats acute seizure models” (Bioorg Med Chem, 2010).
Active and inactive are the calls of the source. The rule behind the calls is not given here.

Experiments:
Mus musculus [1] = test: Neurotoxicity in albino CF1 mouse assessed as minimal motor impairment at 30 mg/kg, ip after 4 hrs by rotarod test; assay type: toxicity, organism-based; set-up: dose 30 mg/kg, route intraperitoneal; settings: in vivo
Mus musculus [2] = test: Neurotoxicity in ip dosed albino CF1 mouse assessed as minimum dose required to cause toxicity after 0.5 hrs by rotarod test; assay type: organism-based; settings: in vivo
Mus musculus [3] = test: Anticonvulsant activity against subcutaneous metrazole-induced seizures in ip dosed albino CF1 mouse assessed as minimum effective dose after 0.5 hrs; assay type: functional; settings: albino CF1, 0.5 h, read-out: MED
Mus musculus [4] = test: Neurotoxicity in albino CF1 mouse assessed as minimal motor impairment at 300 mg/kg, ip after 4 hrs by rotarod test; assay type: toxicity, organism-based; set-up: dose 300 mg/kg, route intraperitoneal; settings: in vivo
Mus musculus [5] = test: Anticonvulsant activity in albino CF1 mouse assessed as protection against subcutaneous metrazole-induced seizures at 30 mg/kg, ip after 4 hrs; assay type: functional, organism-based; set-up: dose 30 mg/kg
Mus musculus [6] = test: Neurotoxicity in ip dosed albino CF1 mouse assessed as minimum dose required to cause toxicity after 4 hrs by rotarod test; assay type: organism-based; settings: in vivo
Mus musculus [7] = test: Anticonvulsant activity in albino CF1 mouse assessed as protection against maximal electroshock-induced seizures at 100 mg/kg, ip after 4 hrs; assay type: functional, organism-based; set-up: dose 100 mg/kg
Mus musculus [8] = test: Anticonvulsant activity in albino CF1 mouse assessed as protection against subcutaneous metrazole-induced seizures at 100 mg/kg, ip after 4 hrs; assay type: functional, organism-based; set-up: dose 100 mg/kg
Mus musculus [9] = test: Anticonvulsant activity in albino CF1 mouse assessed as protection against maximal electroshock-induced seizures at 30 mg/kg, ip after 4 hrs; assay type: functional, organism-based; set-up: dose 30 mg/kg
Mus musculus [10] = test: Anticonvulsant activity against subcutaneous metrazole-induced seizures in ip dosed albino CF1 mouse assessed as minimum effective dose after 4 hrs; assay type: functional; settings: albino CF1, 4 h, read-out: MED
Mus musculus [11] = test: Anticonvulsant activity in albino CF1 mouse assessed as protection against subcutaneous metrazole-induced seizures at 300 mg/kg, ip after 4 hrs; assay type: functional, organism-based; set-up: dose 300 mg/kg
Mus musculus [12] = test: Anticonvulsant activity against maximal electroshock-induced seizures in ip dosed albino CF1 mouse assessed as minimum effective dose after 0.5 hrs; assay type: functional; settings: read-out: MED
Mus musculus [13] = test: Anticonvulsant activity in albino CF1 mouse assessed as protection against subcutaneous metrazole-induced seizures at 300 mg/kg, ip after 0.5 hrs; assay type: functional, organism-based; set-up: dose 300 mg/kg
Mus musculus [14] = test: Anticonvulsant activity against maximal electroshock-induced seizures in ip dosed albino CF1 mouse assessed as minimum effective dose after 4 hrs; assay type: functional; settings: read-out: MED
Mus musculus [15] = test: Neurotoxicity in albino CF1 mouse assessed as minimal motor impairment at 30 to 300 mg/kg, po after 4 hrs by rotarod test; assay type: toxicity, organism-based; set-up: dose 30-300 mg/kg, route oral; settings: in vivo
Mus musculus [16] = test: Anticonvulsant activity in albino CF1 mouse assessed as protection against maximal electroshock-induced seizures at 300 mg/kg, ip after 4 hrs; assay type: functional, organism-based; set-up: dose 300 mg/kg
Mus musculus [17] = test: Neurotoxicity in albino CF1 mouse assessed as minimal motor impairment at 30 to 300 mg/kg, ip after 0.5 hrs by rotarod test; settings: in vivo
Mus musculus [18] = test: Anticonvulsant activity in albino CF1 mouse assessed as protection against maximal electroshock-induced seizures at 300 mg/kg, ip after 0.5 hrs; assay type: functional, organism-based; set-up: dose 300 mg/kg
Mus musculus [19] = test: Neurotoxicity in albino CF1 mouse assessed as minimal motor impairment at 100 mg/kg, ip after 0.5 hrs by rotarod test; assay type: toxicity, organism-based; set-up: dose 100 mg/kg, route intraperitoneal; settings: in vivo
Mus musculus [20] = test: Anticonvulsant activity in albino CF1 mouse assessed as protection against maximal electroshock-induced seizures at 30 mg/kg, ip after 0.5 hrs; assay type: functional, organism-based; set-up: dose 30 mg/kg
Mus musculus [21] = test: Anticonvulsant activity in albino CF1 mouse assessed as protection against subcutaneous metrazole-induced seizures at 30 mg/kg, ip after 0.5 hrs; assay type: functional, organism-based; set-up: dose 30 mg/kg
Mus musculus [22] = test: Neurotoxicity in albino CF1 mouse assessed as minimal motor impairment at 100 mg/kg, ip after 4 hrs by rotarod test; assay type: toxicity, organism-based; set-up: dose 100 mg/kg, route intraperitoneal; settings: in vivo
Mus musculus [23] = test: Neurotoxicity in albino CF1 mouse assessed as minimal motor impairment at 30 mg/kg, ip after 0.5 hrs by rotarod test; assay type: toxicity, organism-based; set-up: dose 30 mg/kg, route intraperitoneal; settings: in vivo
Mus musculus [24] = test: Anticonvulsant activity in albino CF1 mouse assessed as protection against subcutaneous metrazole-induced seizures at 100 mg/kg, ip after 0.5 hrs; assay type: functional, organism-based; set-up: dose 100 mg/kg
Mus musculus [25] = test: Neurotoxicity in albino CF1 mouse assessed as minimal motor impairment at 300 mg/kg, ip after 0.5 hrs by rotarod test; assay type: toxicity, organism-based; set-up: dose 300 mg/kg, route intraperitoneal; settings: in vivo
Mus musculus [26] = test: Anticonvulsant activity in albino CF1 mouse assessed as protection against maximal electroshock-induced seizures at 100 mg/kg, ip after 0.5 hrs; assay type: functional, organism-based; set-up: dose 100 mg/kg

SMILES | Activity (Mus musculus [1]) | MED (Mus musculus [2]) [mg/kg] | minimal effective dose (Mus musculus [3]) [mg/kg] | Activity (Mus musculus [4]) | Activity (Mus musculus [5]) | MED (Mus musculus [6]) [mg/kg] | Activity (Mus musculus [7]) | Activity (Mus musculus [8]) | Activity (Mus musculus [9]) | minimal effective dose (Mus musculus [10]) [mg/kg] | minimal effective dose (Mus musculus [12]) [mg/kg] | minimal effective dose (Mus musculus [14]) [mg/kg] | Activity (Mus musculus [15]) | Activity (Mus musculus [17]) | Activity (Mus musculus [18]) | Activity (Mus musculus [20]) | Activity (Mus musculus [21]) | Activity (Mus musculus [22]) | Activity (Mus musculus [23]) | Activity (Mus musculus [24]) | other results
Clc1cccc(-c2nc(-c3ccccc3)c[nH]2)c1 | Non-toxic | 100 | 100 | Non-toxic | inactive | > 300 | inactive | inactive | inactive | > 300 | 100 | 100 | Non-toxic | Non-toxic | Active | inactive | inactive | Non-toxic | Non-toxic | inactive | Activity (Mus musculus [11]): inactive; Activity (Mus musculus [13]): Active; Activity (Mus musculus [16]): Active; Activity (Mus musculus [19]): Non-toxic
c1ccc(-c2c[nH]c(-c3ccoc3)n2)cc1 | Non-toxic | 100 | > 300 | Toxic | inactive | > 100 | inactive | inactive | inactive | > 300 | 100 | > 300 | Non-toxic | Non-toxic | Active | inactive | inactive | Non-toxic | Non-toxic | inactive | Activity (Mus musculus [25]): Toxic
c1ccc(-c2c[nH]c(-c3ccncc3)n2)cc1 | Non-toxic | 100 | > 300 | Toxic | inactive | 100 |  | inactive | inactive | > 300 | 100 | 100 |  | Non-toxic | Active | inactive | inactive | Non-toxic | Non-toxic | inactive | Activity (Mus musculus [13]): inactive; Activity (Mus musculus [16]): Active; Activity (Mus musculus [25]): Toxic
c1ccc(-c2c[nH]c(C3CCCCC3)n2)cc1 | Non-toxic | 100 | > 300 | Non-toxic | inactive | > 300 | inactive | inactive | inactive | > 300 | > 300 | > 300 | Non-toxic | Non-toxic |  | inactive | inactive | Non-toxic | Non-toxic |  | Activity (Mus musculus [16]): inactive; Activity (Mus musculus [26]): inactive
COc1cccc(-c2nc(-c3ccccc3)c[nH]2)c1 | Non-toxic | > 30 | > 300 | Non-toxic | inactive | > 300 |  | inactive | inactive | > 300 | > 30 | 100 | Non-toxic | Non-toxic | Active | inactive | inactive | Non-toxic | Non-toxic | inactive | Activity (Mus musculus [16]): Active; Activity (Mus musculus [19]): Toxic; Activity (Mus musculus [26]): Active
c1ccc(-c2c[nH]c(-c3ccsc3)n2)cc1 | Non-toxic | 100 | > 300 |  | inactive | > 300 | inactive | inactive | inactive | > 300 | 100 | > 300 | Non-toxic | Non-toxic | Active | inactive | inactive | Non-toxic | Non-toxic | inactive | Activity (Mus musculus [11]): inactive; Activity (Mus musculus [13]): inactive; Activity (Mus musculus [26]): Active
O=[N+]([O-])c1ccc(-c2nc(-c3ccccc3)c[nH]2)cc1 | Non-toxic | > 300 | > 300 | Non-toxic | inactive | > 300 |  | inactive | inactive | 100 | 100 | 100 | Non-toxic | Non-toxic | Active | inactive | inactive | Non-toxic | Non-toxic | inactive | Activity (Mus musculus [13]): inactive; Activity (Mus musculus [16]): Active; Activity (Mus musculus [19]): Non-toxic; Activity (Mus musculus [25]): Non-toxic
c1ccc(-c2c[nH]c(-c3ccco3)n2)cc1 | Non-toxic | 100 | > 300 | Toxic | inactive | 100 | inactive | inactive | inactive | > 300 | 100 | 100 |  | Non-toxic | Active | inactive | inactive | Non-toxic | Non-toxic | inactive | Activity (Mus musculus [11]): inactive; Activity (Mus musculus [13]): inactive; Activity (Mus musculus [16]): Active; Activity (Mus musculus [19]): Non-toxic; Activity (Mus musculus [25]): Toxic
FC(F)(F)c1ccc(-c2c[nH]c(-c3ccccc3)n2)cc1 | Non-toxic | 100 | > 300 | Toxic | inactive | 100 | inactive | inactive | inactive | 100 | 100 | > 300 | Non-toxic | Non-toxic | Active | inactive | inactive | Non-toxic | Non-toxic | inactive | Activity (Mus musculus [11]): Active; Activity (Mus musculus [13]): inactive
c1ccc(-c2c[nH]c(-c3cc4ccccc4o3)n2)cc1 | Non-toxic | > 300 | > 300 |  | inactive | > 300 | inactive | inactive | inactive | > 300 | > 300 | > 300 | Non-toxic | Non-toxic | inactive | inactive | inactive | Non-toxic | Non-toxic | inactive | Activity (Mus musculus [11]): inactive; Activity (Mus musculus [13]): inactive; Activity (Mus musculus [16]): inactive; Activity (Mus musculus [26]): inactive
